# Experiments:
# [1] = Plasma protein binding, equilibrium dialysis; assay type: in vitro ADME, human
# Experimental: Additional Data on Preclinical PK Profile—Protein binding of the compound of Formula (III) was studied using an equilibrium dialysis method in plasma from human, cynomolgus monkey, beagle dog, Sprague Dawley rat, CD-1 mouse, and guinea pig at 0.25, 2.5, and 25 μM. […] In human and monkey, the plasma protein binding was concentration dependent. […] Free fraction of the compound of Formula (III) in liver microsomes from various species ranged from 75.1% to 87.9% at 0.25 mg/mL and from 58.9% to 86.5% at 1.0 mg/mL (Table 17). […] In hepatocytes, the compound of Formula (III) turnover followed a similar trend, with T1/2 ranging from 75.3 minutes in monkey to 278.1 minutes in human.
# [2] = Rat collagen-induced arthritis; assay type: in vivo, female Wistar rat; settings: female, Wistar, rat, plasma, oral, 2 mg/kg/day
# From the text: (§1) In vivo activity in collagen-induced arthritis—A rat CIA model in female Wistar rats was used to define the impact of the compound of Formula (III) on chronic inflammation and derive PK-PD correlations (FIG. 16). YiSaipu™ (recombinant human tumor necrosis factor-α receptor (type II): IgGI Fc (rhTNFR:Fc) fusion protein; biogeneric version of Etanercept™) was used as a comparator. […] The doses required to achieve meaningful efficacy correlated with a BTK target occupancy threshold of >75% over 24 hours based on the preceding target engagement studies.
# (§2) Rat collagen-induced arthritis—An emulsion was prepared on ice from equal volumes of type II collagen (CII; Chondrex) (2 mg/mL in 100 mM acetic acid (Sinopharm Chemical Reagent Co. Ltd)) and Incomplete Freund's Adjuvant (IFA) (Sigma-Aldrich) by high speed homogenization (28,000 rpm) for 3 min (FLUKO Equipment Shanghai Co. Ltd). Eighty-two rats were used in the study. Before immunization, 6 rats were randomly selected as a naïve group. The other 76 rats were anesthetized with inhalational isoflurane, and injected intradermally at the base of the tail with 0.2 mL of the emulsion (1 mg/mL CII/IFA), 2 to 3 cm from the body on day 0 and day 7. On day 10, the 56 rats with the most developed arthritis based on paw volume measurements out of the 76 rats that were immunized were divided into 7 groups (n=8) with a stratified random block design according to average hind paw volume of each rat. Each group with similar starting paw inflammation was administered with vehicle or different doses of the compound of Formula (III) (0.3, 1, 2, 3, 10 mg/kg, PO, QD, days 10-17) or YiSaiPu (biosimilar etarnacept) (15 mg/kg, IP, QOD, days 10-16).
# (§3) Hind paws volume and body weight were monitored daily for 7 consecutive days (days 10-16) after initiation of test article dosing. Left and right paw volumes in each rat were measured by a Plethysmometer (Catalog No. 7140, Ugo Basile. Italy). Blood (about 300 μL) in the groups treated with the compound of Formula (III) was collected into heparinized tubes via retro-orbital bleeding under isoflurane anesthesia on day 17-18. For groups treated with the compound of Formula (III), the composite collection time points were 0, 0.5, 1, 2, 4, 8, 12 and 24 hrs after last administration of the compound of Formula (III). After collection, blood samples were centrifuged (5,000 rpm for 10 min), plasma collected, and the concentrations of the compound of Formula (III) were determined using liquid chromatography mass spectrophotometry.
# hind paw inflammation = test: Rat collagen-induced arthritis; assay type: in vivo, female Wistar rat
# From the text: as §1, §2, §3
# BTK = BTK (Homo sapiens, UniProt Q06187); test: Mechanistic PK/BTKO model and simulations; parameters: measuring free BTK levels in peripheral blood mononuclear cells (PBMCs) and calculating % BTKO; endogenous in cells; host or cells: human PBMCs, lysed after isolation from whole blood
# From the text: A mechanistic covalent binding model (FIG. 2) was used to describe the receptor occupancy of compound of Formula (III). The equations describing the binding model are shown in equations 1-5.
# where symbols represent the free BTK protein concentration (BTK), drug-BTK complex (BTKb) and covalently bound complex (BTKi). The rate constants in the equations include zero-order rate of BTK synthesis (ksyn); the first-order rate of free BTK degradation (kdegf); the first-order rate of covalently bound complex degradation (Kdegi); association rate drug-BTK binding (kon); dissociation rate drug-BTK binding (koff). C1 is the concentration in central compartment. BTK0 is the baseline value of BTK. […]
# In order to refine predictions of % BTKO after multiple dosing for the MAD cohorts and to help select a starting dose for the subsequent first-in-patient oncology study, a prior mechanistic PK/PD model based on in vitro and in vivo BTKO data was updated with clinical PK/BTKO data collected from SAD cohorts of the FIH study. […] The evaluated dosing regimens included 12 mg, 36 mg, 70 mg, 100 mg, 140 mg, 200 mg QD dose. […]
# Once MAD data were available, the semi-mechanistic PK/PD model was updated with the acquired data from SAD and MAD cohorts. All covariate effects in the popPK analysis were evaluated on clearance from the central compartment (CL/F) only, except for body weight, food effect, and drug formulation. […]
# Sequence of BTK (Q06187 whole entry): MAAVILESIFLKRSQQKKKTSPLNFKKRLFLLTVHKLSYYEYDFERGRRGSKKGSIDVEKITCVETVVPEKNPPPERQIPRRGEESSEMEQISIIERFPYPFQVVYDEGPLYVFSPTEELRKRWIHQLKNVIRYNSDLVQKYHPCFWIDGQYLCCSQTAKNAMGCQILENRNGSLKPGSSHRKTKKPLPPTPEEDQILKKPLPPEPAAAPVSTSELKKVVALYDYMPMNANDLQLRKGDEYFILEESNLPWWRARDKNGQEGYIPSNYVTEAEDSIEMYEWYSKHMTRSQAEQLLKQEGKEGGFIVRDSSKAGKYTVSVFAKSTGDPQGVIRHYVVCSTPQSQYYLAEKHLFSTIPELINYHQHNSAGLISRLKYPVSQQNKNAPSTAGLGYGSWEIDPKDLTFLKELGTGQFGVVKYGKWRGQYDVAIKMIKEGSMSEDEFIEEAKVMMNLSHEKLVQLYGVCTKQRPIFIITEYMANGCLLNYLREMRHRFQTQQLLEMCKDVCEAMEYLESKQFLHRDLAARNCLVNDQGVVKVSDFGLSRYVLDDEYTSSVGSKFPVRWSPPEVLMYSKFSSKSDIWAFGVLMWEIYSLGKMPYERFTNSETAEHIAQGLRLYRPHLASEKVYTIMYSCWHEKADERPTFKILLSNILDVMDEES
smiles,measurement,setting,value
"C=CC(=O)N[C@H]1CCC[C@H]1NC(=O)c1sc2nccc3c2c1NC(=O)N3c1cnc(CC(C)C)cc1C (atropisomer, axis not shown) [compound of Formula (III), N-((1R,2S)-2-Acrylamidocyclopentyl)-5-(S)-(6-isobutyl-4-methylpyridin-3-yl)-4-oxo-4,5-dihydro-3H-1-thia-3,5,8-triazaacenaphthylene-2-carboxamide]",% Free in plasma,[1]; 2.5 μM,3.1%
same,fraction unbound at 0.25 μM,"[1]; human, plasma, 0.25 μM, read-out: % Free in plasma",0.0169
same,fraction unbound at 25 μM,"[1]; human, plasma, 25 μM, read-out: % Free in plasma",0.0463
same,AUC(0-t),[2]; read-out: AUClast at efficacious dose,324 ng·h/mL
same,Cmax,[2]; read-out: Cmax at efficacious dose,46.6 ng/mL
same,effect on hind paw inflammation,"hind paw inflammation; 0.3, 1, 2, 3, 10 mg/kg/day PO QD",attenuated hind paw inflammation in a dose-dependent manner
same,dose with effect on inflammation equivalent to anti-TNFα comparator,hind paw inflammation; PO QD,≥ 2 mg/kg/day
same,"kon, PD model estimate","BTK; model (A), SAD cohorts 2-5",0.0447 l/nM/h
same,"kon, PD model estimate","BTK; model (B), all SAD and MAD data",0.0509 l/nM/h
